According to patent publication US20210196816A1, “ALGAE COMPRISING THERAPEUTIC AND/OR NUTRITIONAL AGENTS” (TomAlgae CVBA, priority 2016, published 2021):

What was measured:
algae cells [1] = assay: Loading of freeze-dried algae with vitamin C by rehydration; vitamin C in algal cells by HPLC-DAD; design: species or system Cyclotella meneghiniana; conditions: rehydration in 5 g/L vitamin C; incubation at 28° C.
Procedure: A rehydration composition was prepared by dissolving 500 mg per litre vitamin C in filtered natural (North Sea) seawater (20° C.). A second rehydration composition was prepared by dissolving 5 g per litre vitamin C in the seawater. As a control, a third rehydration composition consisted of just the clean seawater without any vitamin C added.
The algae were then rehydrated by adding one of the rehydration compositions to a standard kitchen blender (Kenwood KM230, 650 W, with blender attachment). The blender was switched on at a moderate mixing speed (speed 4) to agitate the rehydration composition. Then 10 g per litre of freeze-dried algae was added to the rehydration composition while mixing, and the freeze-dried algae was allowed to blend into the rehydration composition for 2 minutes. Cell integrity after rehydration was verified using a microscope.
Each of the three rehydration compositions comprising rehydrated algae were split into six replicates. Three replicates of each composition were harvested immediately after rehydration. The remaining three replicates of the treatment groups were incubated in a water bath at 28° C. and provided with moderate aeration. […]
The concentration of vitamin C in the algal cells of the treatment groups and control at the different time points were then analysed by high-performance liquid chromatography with Diode-Array Detection.

algae cells [2] = assay: Loading of algae with astaxanthin, microscopic examination; design: species or system Cyclotella meneghiniana; conditions: over 24 hours
Procedure: A rehydration composition was prepared by adding 1 g of synthetic astaxanthin to 200 ml of fresh, potable water, then microwaving 3 times for 1 min each time.
The algae were then rehydrated by blending the astaxanthin solution (suspension) together with 1 litre of potable water and 200 mg of the algae powder for 2 minutes.
Astaxanthin particles were able to penetrate inside algae cells and were also absorbed by the porous surface of the siliceous exoskeleton (frustule).

Row | SMILES | time for which the vitamin C level in the algae cells was maintained (algae cells [1]) [h] | stability of association of astaxanthin particles within algae cells (algae cells [2])
1 | O=C1O[C@H]([C@@H](O)CO)C(O)=C1O [vitamin C] | ≥ 6 | –
2 | CC1=C(/C=C/C(C)=C/C=C/C(C)=C/C=C/C=C(C)/C=C/C=C(C)/C=C/C2=C(C)C(=O)[C@@H](O)CC2(C)C)C(C)(C)C[C@H](O)C1=O [astaxanthin] | – | remained stable
